# Source: patent US10358463B2, “Immunomodulators” (BRISTOL-MYERS SQUIBB COMPANY, priority 2016, dated 2019)
# Numbered stars: 1 amine (or outer) side, 2 acyl side, 3 side chain; on linkers, the order of the positions; unused ones are H or OH. Bridge positions count the residues as written; N and C are the ends. Square brackets hold non-standard residues; d marks the D form. Peptide text beside a SMILES is read from it. ξ: configuration not given here. Trp(1-CH2CONHSO2Me) = CS(=O)(=O)NC(=O)Cn1cc(C[C@H](N)C(=O)O)c2ccccc21; X14 = C[C@H](C(=O)O)n1c(=O)n(C[C@H](N[*:1])C(=O)[*:2])c2ccccc21; X17 = O=C([C@H](Cc1cn(Cc2nnn[nH]2)c2ccccc12)N[*:1])[*:2]; X13 = O=C(O)Cc1nc(C[C@H](N[*:1])C(=O)[*:2])c2ccccn12; X5 = O=C(O)Cn1nc(C[C@H](N[*:1])C(=O)[*:2])c2ccccc21; X2 = O=C(O)Cc1cn(CC(N[*:1])C(=O)[*:2])c2cccnc12; X8 = O=C(O)Cn1cc(CC(N[*:1])C(=O)[*:2])c2cncnc21; X15 = O=C([C@H](Cc1n[nH]c2ccccc12)N[*:1])[*:2]; X16 = O=C([C@H](Cc1cccc2ccncc12)N[*:1])[*:2]; Phe(4-Cl) = N[C@@H](Cc1ccc(Cl)cc1)C(=O)O; Hyp = O=C(O)[C@@H]1C[C@@H](O)CN1; NMeNle = CCCC[C@H](NC)C(=O)O; Pen = CC(C)(S)[C@H](N)C(=O)O; Pip = O=C(O)[C@@H]1CCCCN1; NMeA = CN[C@@H](C)C(=O)O; Dab = NCC[C@H](N)C(=O)O; Dap = NC[C@H](N)C(=O)O; ξP = O=C(O)C1CCCN1
# Target: T1, PD-1-Ig binding to PD-L1-TVMV-His (PD-L1-His) (Homo sapiens, UniProt Q9NZQ7)
# T1 construct: hPDL1 (19-239)-TVMV-His; TVMV protease cleavage site (C); made in house; host or cells: HEK293T cells
# T1 sequence (Q9NZQ7 with tags, fused parts or gaps): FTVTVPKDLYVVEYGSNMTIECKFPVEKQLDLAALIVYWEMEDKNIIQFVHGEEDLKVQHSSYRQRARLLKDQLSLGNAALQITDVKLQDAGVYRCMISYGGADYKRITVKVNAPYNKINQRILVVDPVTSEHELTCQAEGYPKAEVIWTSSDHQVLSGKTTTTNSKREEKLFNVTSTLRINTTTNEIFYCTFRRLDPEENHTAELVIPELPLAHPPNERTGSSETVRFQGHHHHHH
# Assay: PD-1/PD-L1 Homogenous Time-Resolved Fluorescence (HTRF) binding assay
# Details: PD-1-Ig (20 nM)/PD-L1-His (10 nM); range class
# Text: The ability of the macrocyclic peptides of the present disclosure to bind to PD-L1 was investigated using a PD-1/PD-L1 Homogenous Time-Resolved Fluorescence (HTRF) binding assay.
# Homogenous Time-Resolved Fluorescence (HTRF) Assays of Binding of Soluble PD-1 to Soluble PD-L1. Soluble PD-1 and soluble PD-L1 refers to proteins with carboxyl-end truncations that remove the transmembrane-spanning regions and are fused to heterologous sequences, specifically the Fc portion of the human immunoglobuling G sequence (Ig) or the hexahistidine epitope tag (His). All binding studies were performed in an HTRF assay buffer consisting of dPBS supplemented with 0.1% (w/v) bovine serum albumin and 0.05% (v/v) Tween-20. For the PD-1-Ig/PD-L1-His binding assay, inhibitors were pre-incubated with PD-L1-His (10 nM final) for 15 m in 4 μl of assay buffer, followed by addition of PD-1-Ig (20 nM final) in 1 μl of assay buffer and further incubation for 15 m. PD-L1 fusion proteins from either human, cynomologous macaques, mouse, or other species were used. HTRF detection was achieved using europium crypate-labeled anti-Ig monoclonal antibody (1 nM final) and allophycocyanin (APC) labeled anti-His monoclonal antibody (20 nM final). Antibodies were diluted in HTRF detection buffer and 5 μl was dispensed on top of binding reaction. The reaction was allowed to equilibrate for 30 minutes and signal (665 nm/620 nm ratio) was obtained using an EnVision fluorometer. Additional binding assays were established between PD-1-Ig/PD-L2-His (20 and 5 nM, respectively), CD80-His/PD-L1-Ig (100 and 10 nM, respectively) and CD80-His/CTLA4-Ig (10 and 5 nM, respectively). Binding/competition studies between biotinylated Compound No. 71 and human PD-L1-His were performed as follows. Macrocyclic peptide inhibitors were pre-incubated with PD-L1-His (10 nM final) for 60 minutes in 4 μl of assay buffer followed by addition of biotinylated Compound No. 71 (0.5 nM final) in 1 μl of assay buffer. Binding was allowed to equilibrate for 30 minutes followed by addition of europium crylated labeled Streptavidin (2.5 pM final) and APC-labeled anti-His (20 nM final) in 5 μl of HTRF buffer. The reaction was allowed to equilibrate for 30 m and signal (665 nm/620 nm ratio) was obtained using an EnVision fluorometer.
# Recombinant Proteins. Carboxyl-truncated human PD-1 (amino acids 25-167) with a C-terminal human Ig epitope tag [hPD-1 (25-167)-3S-IG] and human PD-L1 (amino acids 18-239) with a C-terminal His epitope tag [hPD-L1(19-239)-tobacco vein mottling virus protease cleavage site (TVMV)-His] were expressed in HEK293T cells and purified sequentially by recombinant Protein A affinity chromatography and size exclusion chromatography. Human PD-L2-His (Sino Biologicals), CD80-His (Sino Biologicals), CTLA4-Ig (RnD Systems) were all obtained through commercial sources.
row,SMILES,IC50
1,CCCC[C@H]1C(=O)N(C)[C@@H](CCCC)C(=O)N[C@@H](CC(C)C)C(=O)N[C@H](C(=O)NCC(N)=O)CSCC(=O)N[C@@H](Cc2ccc(O)cc2)C(=O)N(C)[C@@H](C)C(=O)N[C@@H](CC(N)=O)C(=O)N2CCC[C@H]2C(=O)N[C@@H](CN)C(=O)N[C@@H](CC(C)C)C(=O)N2C[C@H](O)C[C@H]2C(=O)N[C@@H](Cc2c[nH]c3ccccc23)C(=O)N[C@@H](CCN)C(=O)N[C@@H](Cn2c(=O)n([C@H](C)C(=O)O)c3ccccc32)C(=O)N1C [Example 1014] ({CH2CO}-Y[NMeA]NP[Dap]L[Hyp]W[Dab][X14][NMeNle][NMeNle]LCG-NH2; thioether N-14),1 to 9.9 nM
2,CCCC[C@H]1C(=O)N(C)[C@@H](CCCC)C(=O)N[C@@H](C)C(=O)N[C@H](C(=O)NCC(N)=O)CSCC(=O)N[C@@H](Cc2ccc(O)cc2)C(=O)N(C)[C@@H](C)C(=O)N[C@@H](CC(N)=O)C(=O)N2CCC[C@H]2C(=O)N[C@@H](Cc2cnc[nH]2)C(=O)N[C@@H](CCC(N)=O)C(=O)N2C[C@H](O)C[C@H]2C(=O)N[C@@H](Cc2c[nH]c3ccccc23)C(=O)N[C@@H](CO)C(=O)N[C@@H](Cc2cccc3ccncc23)C(=O)N1C [Example 1271] ({CH2CO}-Y[NMeA]NPHQ[Hyp]WS[X16][NMeNle][NMeNle]ACG-NH2; thioether N-14),10 to 99 nM
3,CCCC[C@H]1C(=O)N(C)[C@@H](CCCC)C(=O)N[C@@H](CC(C)C)C(=O)N[C@H](C(=O)NCC(N)=O)CSCC(=O)N[C@@H](Cc2ccc(O)cc2)C(=O)N(C)[C@@H](C)C(=O)N[C@@H](CC(N)=O)C(=O)N2CCC[C@H]2C(=O)N[C@@H](CN)C(=O)N[C@@H](CC(C)C)C(=O)N2C[C@H](O)C[C@H]2C(=O)N[C@@H](Cc2c[nH]c3ccccc23)C(=O)N[C@@H](CCN)C(=O)N[C@@H](Cc2cn(Cc3nnn[nH]3)c3ccccc23)C(=O)N1C [Example 1020] ({CH2CO}-Y[NMeA]NP[Dap]L[Hyp]W[Dab][X17][NMeNle][NMeNle]LCG-NH2; thioether N-14),> 1000 nM
4,CCCC[C@H]1C(=O)N(C)[C@@H](CCCC)C(=O)N[C@@H](C)C(=O)N[C@H](C(=O)NCC(N)=O)CSCC(=O)N[C@@H](Cc2ccc(O)cc2)C(=O)N(C)[C@@H](C)C(=O)N[C@@H](CC(N)=O)C(=O)N2CCCC2C(=O)N[C@@H](Cc2cnc[nH]2)C(=O)N[C@@H](CCC(N)=O)C(=O)N2C[C@H](O)C[C@H]2C(=O)N[C@@H](Cc2c[nH]c3ccccc23)C(=O)N[C@@H](CO)C(=O)N[C@@H](Cc2n[nH]c3ccccc23)C(=O)N1C (stereo partly drawn) [Example 1286] ({CH2CO}-Y[NMeA]N[ξP]HQ[Hyp]WS[X15][NMeNle][NMeNle]ACG-NH2; thioether N-14),100 to 990 nM
5,CCCC[C@H]1C(=O)N(C)[C@@H](CCCC)C(=O)N[C@@H](CC(C)C)C(=O)N[C@H](C(=O)NCC(N)=O)CSCC(=O)N[C@@H](Cc2ccc(O)cc2)C(=O)N(C)[C@@H](C)C(=O)N[C@@H](CC(N)=O)C(=O)N2CCC[C@H]2C(=O)N[C@@H](CN)C(=O)N[C@@H](CC(C)C)C(=O)N2C[C@H](O)C[C@H]2C(=O)N[C@@H](Cc2c[nH]c3ccccc23)C(=O)N[C@@H](CCN)C(=O)NC(Cc2cn(CC(=O)O)c3ncncc23)C(=O)N1C (stereo partly drawn) [Example 10002] ({CH2CO}-Y[NMeA]NP[Dap]L[Hyp]W[Dab][X8][NMeNle][NMeNle]LCG-NH2; thioether N-14),100 to 990 nM
6,CCCC[C@H]1C(=O)N(C)[C@@H](CCCC)C(=O)N[C@@H](CC(C)C)C(=O)N[C@H](C(N)=O)CSCC(=O)N[C@@H](Cc2ccc(O)cc2)C(=O)N(C)[C@@H](C)C(=O)N[C@@H](CC(N)=O)C(=O)N2CCC[C@H]2C(=O)N[C@@H](CN)C(=O)N[C@@H](CC(C)C)C(=O)N2C[C@H](O)C[C@H]2C(=O)N[C@@H](Cc2c[nH]c3ccccc23)C(=O)N[C@@H](CCN)C(=O)N[C@@H](Cc2nn(CC(=O)O)c3ccccc23)C(=O)N1C [Example 10501] ({CH2CO}-Y[NMeA]NP[Dap]L[Hyp]W[Dab][X5][NMeNle][NMeNle]LC-NH2; thioether N-14),1 to 9.9 nM
7,CCCC[C@H]1C(=O)N(C)[C@@H](CCCC)C(=O)N[C@@H](CC(C)C)C(=O)N[C@H](C(=O)NCC(N)=O)CSCC(=O)N[C@@H](Cc2ccc(O)cc2)C(=O)N(C)[C@@H](C)C(=O)N[C@@H](CC(N)=O)C(=O)N2CCC[C@H]2C(=O)N[C@@H](CN)C(=O)N[C@@H](CC(C)C)C(=O)N2C[C@H](O)C[C@H]2C(=O)N[C@@H](Cc2c[nH]c3ccccc23)C(=O)N[C@@H](CCN)C(=O)N[C@@H](Cc2nc(CC(=O)O)n3ccccc23)C(=O)N1C [Example 1016] ({CH2CO}-Y[NMeA]NP[Dap]L[Hyp]W[Dab][X13][NMeNle][NMeNle]LCG-NH2; thioether N-14),1 to 9.9 nM
8,CCCC[C@H]1C(=O)N(C)[C@@H](CCCC)C(=O)N[C@@H](CC(C)C)C(=O)N[C@H](C(=O)NCC(N)=O)CSCC(=O)N[C@@H](Cc2ccc(O)cc2)C(=O)N(C)[C@@H](C)C(=O)N[C@@H](CC(N)=O)C(=O)N2CCC[C@H]2C(=O)N[C@@H](CN)C(=O)N[C@@H](CC(C)C)C(=O)N2C[C@H](O)C[C@H]2C(=O)N[C@@H](Cc2c[nH]c3ccccc23)C(=O)N[C@@H](CCN)C(=O)NC(Cn2cc(CC(=O)O)c3ncccc32)C(=O)N1C (stereo partly drawn) [Example 10003] ({CH2CO}-Y[NMeA]NP[Dap]L[Hyp]W[Dab][X2][NMeNle][NMeNle]LCG-NH2; thioether N-14),100 to 990 nM

# Results, then the molecule that gave them:
row,IC50,SMILES
1,1 to 9.9 nM,CCCC[C@H]1C(=O)N(C)[C@@H](CCCC)C(=O)N[C@@H](CC(C)C)C(=O)N[C@H](C(=O)NCC(N)=O)CSCC(=O)N[C@@H](Cc2ccc(O)cc2)C(=O)N(C)[C@@H](C)C(=O)N[C@@H](CC(=O)O)C(=O)N2CCC[C@H]2C(=O)N[C@@H](Cc2cnc[nH]2)C(=O)N[C@@H](CCCCN)C(=O)N2C[C@H](O)C[C@H]2C(=O)N[C@@H](Cc2c[nH]c3ccccc23)C(=O)N[C@@H](CCCCN)C(=O)N[C@@H](Cc2cn(CC(=O)NS(C)(=O)=O)c3ccccc23)C(=O)N1C [Example 1019] ({CH2CO}-Y[NMeA]DPHK[Hyp]WK[Trp(1-CH2CONHSO2Me)][NMeNle][NMeNle]LCG-NH2; thioether N-14)
2,1 to 9.9 nM,CCCC[C@H]1C(=O)N(C)[C@@H](CCCC)C(=O)N[C@@H](CC(C)C)C(=O)N[C@H](C(N)=O)C(C)(C)SCC(=O)N[C@@H](Cc2ccc(Cl)cc2)C(=O)N2CCCC[C@H]2C(=O)N[C@@H](CC(=O)O)C(=O)N2CCC[C@H]2C(=O)N[C@@H](CN)C(=O)N[C@@H](CCC(=O)O)C(=O)N2C[C@H](O)C[C@H]2C(=O)N[C@@H](Cc2c[nH]c3ccccc23)C(=O)N[C@@H](CCN)C(=O)N[C@@H](Cc2cn(CC(=O)NS(C)(=O)=O)c3ccccc23)C(=O)N1C [Example 1005] ({CH2CO}-[Phe(4-Cl)][Pip]DP[Dap]E[Hyp]W[Dab][Trp(1-CH2CONHSO2Me)][NMeNle][NMeNle]L[Pen]-NH2; thioether N-14)
3,1 to 9.9 nM,CCCC[C@H]1C(=O)N(C)[C@@H](CCCC)C(=O)N[C@@H](CC(C)C)C(=O)N[C@H](C(N)=O)C(C)(C)SCC(=O)N[C@@H](Cc2ccc(O)cc2)C(=O)N2CCCC[C@H]2C(=O)N[C@@H](CC(=O)O)C(=O)N2CCC[C@H]2C(=O)N[C@@H](Cc2cnc[nH]2)C(=O)N[C@@H](CCC(=O)O)C(=O)N2C[C@H](O)C[C@H]2C(=O)N[C@@H](Cc2c[nH]c3ccccc23)C(=O)N[C@@H](CCN)C(=O)N[C@@H](Cc2cn(CC(=O)NS(C)(=O)=O)c3ccccc23)C(=O)N1C [Example 1010] ({CH2CO}-Y[Pip]DPHE[Hyp]W[Dab][Trp(1-CH2CONHSO2Me)][NMeNle][NMeNle]L[Pen]-NH2; thioether N-14)
4,1 to 9.9 nM,CCCC[C@H]1C(=O)N(C)[C@@H](CCCC)C(=O)N[C@@H](CC(C)C)C(=O)N[C@H](C(N)=O)C(C)(C)SCC(=O)N[C@@H](Cc2ccc(OC)cc2)C(=O)N2CCCC[C@H]2C(=O)N[C@@H](CC(=O)O)C(=O)N2CCC[C@H]2C(=O)N[C@@H](CN)C(=O)N[C@@H](CCC(=O)O)C(=O)N2C[C@H](O)C[C@H]2C(=O)N[C@@H](Cc2c[nH]c3ccccc23)C(=O)N[C@@H](CCN)C(=O)N[C@@H](Cc2cn(CC(=O)NS(C)(=O)=O)c3ccccc23)C(=O)N1C [Example 1004] ({CH2CO}-Y(Me)[Pip]DP[Dap]E[Hyp]W[Dab][Trp(1-CH2CONHSO2Me)][NMeNle][NMeNle]L[Pen]-NH2; thioether N-14)
